We go through 22 compounds from patent publication US8354526B2, “Pyrido [4, 3-D] pyrimidinone derivatives as kinase inhibitors” (IRM LLC, priority 2008, dated 2013).

Like-named read-outs stand apart in the source and are kept apart here.

One experiment deals with T1, BaF3/Tel-KDR (Homo sapiens, UniProt P35968).
T1 construct: fused on or other part: Dimerization domain of Tel (ETV6), fused to KDR; it is part of the key as ETV6; The host cells also express luciferase, which serves only as the read-out; P41212 (Transcription factor ETV6)
T1 sequence (P35968 834-1162 limits assumed, change not shown): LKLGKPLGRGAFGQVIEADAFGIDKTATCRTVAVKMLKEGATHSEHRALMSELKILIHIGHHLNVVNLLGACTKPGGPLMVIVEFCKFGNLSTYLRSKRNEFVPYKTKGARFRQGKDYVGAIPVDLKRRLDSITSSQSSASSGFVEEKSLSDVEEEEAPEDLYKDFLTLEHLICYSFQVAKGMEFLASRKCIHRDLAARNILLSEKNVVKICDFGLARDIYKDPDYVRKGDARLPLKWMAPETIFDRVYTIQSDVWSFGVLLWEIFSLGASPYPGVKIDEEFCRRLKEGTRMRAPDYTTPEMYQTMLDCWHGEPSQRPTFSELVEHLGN
The experiment can be described thus: BaF3/Tel-KDR cellular proliferation assay. The class given is cell-based, murine. The note with it: read-out: IC50 in BaF3/Tel-KDR cellular assay.

The next experiment addresses T2, Zap70 (kinase domain) (Homo sapiens, UniProt P43403).
T2 construct: Zap70 (kinase domain)
T2 sequence (P43403 338-600 limits assumed): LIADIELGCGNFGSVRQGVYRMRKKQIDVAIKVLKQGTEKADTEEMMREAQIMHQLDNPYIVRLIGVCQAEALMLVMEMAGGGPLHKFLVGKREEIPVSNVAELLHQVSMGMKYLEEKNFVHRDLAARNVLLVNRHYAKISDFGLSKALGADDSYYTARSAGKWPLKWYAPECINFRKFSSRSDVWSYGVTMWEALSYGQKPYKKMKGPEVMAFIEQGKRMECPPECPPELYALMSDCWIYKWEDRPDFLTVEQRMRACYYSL
The experiment can be described thus: Inhibition of enzymatic Zap70 kinase activity (HTRF). The format is biochemical. The procedure:
(§1) Purified recombinant hSyk (full length) and Zap70 (kinase domain) diluted in assay buffer are dispensed in 384 well proxi-plates. […] 50 nL of diluted compounds are added to the enzyme solutions and incubated for […] at room temperature, after which ATP and biotynilated peptide substrate are added. Substrate phosphorylation is a function of the HTRF signal measured following the addition of Cisbio-HTRF reagents.
For orientation: TR-FRET usually uses a lanthanide donor and a delayed reading to cut background.

The target of a further experiment is T3, BaF3/Tel-Syk (Homo sapiens, UniProt P43405).
T3 construct: fused on or other part: Dimerization domain of Tel (ETV6), fused to Syk; it is part of the key as ETV6; The host cells also express luciferase, which serves only as the read-out; P41212 (Transcription factor ETV6)
The experiment can be described thus: BaF3/Tel-Syk cellular proliferation assay. The format is cell-based, murine. The settings on record: read-out: IC50 in BaF3/Tel-Syk cellular assay.

Another experiment concerns the target T4, hSyk (full length) (Homo sapiens, UniProt P43405).
T4 construct: Purified recombinant hSyk (full length)
The experiment can be described thus: Inhibition of enzymatic Syk kinase activity (HTRF). The class given is biochemical. The procedure: as §1

The next experiment deals with T5, BaF3/Tel-FMS (Homo sapiens, UniProt P07333).
T5 construct: fused on or other part: Dimerizing part of Tel (ETV6), fused to FMS; it is part of the key as ETV6; P41212 (Transcription factor ETV6)
T5 sequence (P07333 582-910 limits assumed): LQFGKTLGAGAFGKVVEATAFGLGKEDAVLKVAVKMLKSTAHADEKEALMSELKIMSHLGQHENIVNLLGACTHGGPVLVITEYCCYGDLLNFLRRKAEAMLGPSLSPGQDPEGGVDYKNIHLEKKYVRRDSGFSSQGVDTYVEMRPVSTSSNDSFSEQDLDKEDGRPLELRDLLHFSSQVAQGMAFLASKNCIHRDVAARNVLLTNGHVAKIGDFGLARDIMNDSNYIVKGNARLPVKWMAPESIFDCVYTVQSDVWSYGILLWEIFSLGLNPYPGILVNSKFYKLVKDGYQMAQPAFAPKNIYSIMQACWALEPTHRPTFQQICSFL
The experiment can be described thus: BaF3/Tel-FMS cellular proliferation assay. The format is cell-based, murine. The settings on record: read-out: IC50 in BaF3/Tel-FMS cellular assay.

Another experiment deals with T6, BaF3/Tel-KIT (Homo sapiens, UniProt P10721).
T6 construct: fused on or other part: Dimerizing part of Tel (ETV6), fused to c-Kit; P41212 (Transcription factor ETV6)
T6 sequence (P10721 589-937 limits assumed, change not shown): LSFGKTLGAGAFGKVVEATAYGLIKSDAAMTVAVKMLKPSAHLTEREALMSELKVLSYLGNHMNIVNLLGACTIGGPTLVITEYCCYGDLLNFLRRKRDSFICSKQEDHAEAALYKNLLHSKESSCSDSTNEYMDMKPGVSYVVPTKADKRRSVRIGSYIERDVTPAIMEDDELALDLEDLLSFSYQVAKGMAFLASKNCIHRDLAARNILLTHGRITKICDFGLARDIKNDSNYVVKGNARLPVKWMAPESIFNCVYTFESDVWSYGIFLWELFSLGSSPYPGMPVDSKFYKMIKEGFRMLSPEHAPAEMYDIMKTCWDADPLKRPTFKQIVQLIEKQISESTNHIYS
The experiment can be described thus: BaF3/Tel-KIT cellular proliferation assay. The format is cell-based, murine. The settings on record: read-out: IC50 in BaF3/Tel-KIT cellular assay.

Where [1] appears, read: IC50 for Syk inhibition, Table 2, read-out: Syk HTRF.

Description for BaF3/Tel-FMS: (§2) Compounds of the invention are tested for their antiproliferative effect on Ba/F3 cells expressing either Tel-TrkA, Tel-TrkB or Tel-TrkC and an additional panel of 34 selected diverse kinases activated by fusion to the dimerizing partners Bcr or Tel (Abl, AlK, BMX, EphA3, EphB2, FGFR2, FGFR3, FGFR4, FGR, FLT1, FLT3, FLT4, FMS, IGF1R, InsR, JAK1, JAK2, JAK3, KDR, Kit, Lck, Lyn, MER, MET, PDGFRb, RET, RON, Ros-1, Src, Syk, TIE2, TYK2, Tie1, ZAP70). The antiproliferative effect of these compounds on the different cell lines and on the non transformed cells were tested at 12 different concentrations of 3-fold serially diluted compounds in 384 well plates as described above (in media lacking IL3). The IC50 values of the compounds the different cell lines were determined from the dose response curves obtained as describe above.
Description for BaF3/Tel-KDR: (§3) Cells are maintained in RPMI/10% fetal calf serum (RPMI/FCS) supplemented with penicillin 50 μg/mL, streptomycin 50 μg/mL and L-glutamine 200 mM. Untransformed Ba/F3 cells are similarly maintained with the addition of murine recombinant IL3. Cells are dispensed into 384-well format plate at 5000 cell/well in 50 μL of culture medium. Compounds of the invention are dissolved and diluted in dimethylsufoxide (DMSO). Twelve points 1:3 serial dilutions are made into DMSO to create concentrations gradient ranging from 10 mM to 0.05 μM. Cells are added with 50 nL of diluted compounds and incubated for 48 hours in cell culture incubator. Luminiscent signal is measured following the addition of Bright Glo® (Promega) luciferase substrate. IC50 values are calculated by linear regression analysis of the percentage inhibition of each compound at 12 concentrations.
Description for BaF3/Tel-KIT: as §2
Compounds were tested for their ability to inhibit the proliferation of wt Ba/F3 cells and Ba/F3 cells transformed with Tel c-Kit fused tyrosine kinases. Untransformed Ba/F3 cells are maintained in media containing recombinant IL3. Cells are plated into 384 well TC plates at 5,000 cells in 50 ul media per well and test compound at 0.06 nM to 10 μM is added. […] After incubating the cells, 25 μL of BRIGHT GLO® (Promega) is added to each well following manufacturer's instructions and the plates are read using Analyst GT—Luminescence mode—50000 integration time in RLU.
Description for BaF3/Tel-Syk: as §3

Regarding `O=c1[nH]cnc2cc(-c3ccccc3)nc(Nc3ccc(N4CCOCC4)cc3)c12` [Example 4a, 5-(4-morpholinophenylamino)-7-phenylpyrido[4,3-d]pyrimidin-4(3H)-one], the GI50 was 1860 nM at BaF3/Tel-KDR, 160 nM at BaF3/Tel-Syk, 7 nM on BaF3/Tel-FMS and 30 nM on BaF3/Tel-KIT. Further, the IC50 stood at 38000 nM against Zap70 (kinase domain) and 90 nM at hSyk (full length) (read-out: IC50 in Syk enzymatic assay). With `CC(C)Nc1nc(-c2ccc(C(C)(C)O)nc2)cc2ncn(C)c(=O)c12` [Example 6], at hSyk (full length) (setting [1]), the IC50 was 190 nM. For `NCCCNc1cc2nc[nH]c(=O)c2c(Nc2ccc(N3CCOCC3)cc2)n1` [Example 13], the IC50 at hSyk (full length) (setting [1]) stood at 5.66 nM.

Take `O=c1[nH]cnc2cc(NCc3ccncc3)nc(Nc3ccc(N4CCOCC4)cc3)c12` [Example 25]: the IC50 at hSyk (full length) (setting [1]) was found to be 61 nM. In the case of `COc1ccc(-c2cc3ncn(C)c(=O)c3c(NCc3ccncc3)n2)cc1OC` [Example 114], the IC50 at hSyk (full length) (setting [1]) came to 40 nM.

Regarding `CNc1cc(CNc2nc(-c3ccc(OC)c(OC)c3)cc3ncn(C)c(=O)c23)ccn1` [Example 183], on hSyk (full length) (setting [1]), the IC50 stood at 126 nM.

For the compound `COc1ccc(-c2cc3ncn(C)c(=O)c3c(NCCc3ccccn3)n2)cc1OC` [Example 189], the IC50 at hSyk (full length) (setting [1]) is 258 nM. On the same count and under the same terms, in the case of `COc1cc(-c2cc3ncn(C)c(=O)c3c(NCc3ccncc3)n2)ccc1N` [Example 194] it was 104 nM; in that of `O=c1[nH]cnc2cc(-c3cc(Cl)ccc3Cl)nc(Nc3ccc(N4CCOCC4)cc3)c12` [Example 254], 1120 nM; in that of `COCCOc1cc(-c2cc3ncn(C)c(=O)c3c(NCC(F)F)n2)ccc1OC` [Example 270], 139 nM. For `Cn1cnc2cc(-c3ccc4c(c3)NC(=O)C(C)(C)O4)nc(NCC(F)F)c2c1=O` [Example 273], the IC50 on hSyk (full length) (setting [1]) is 198 nM.

Take `Cn1cnc2cc(-c3ccc4c(c3)NC(=O)C4)nc(NCc3ccnc(N)c3)c2c1=O` [Example 278]: at hSyk (full length) (setting [1]), the IC50 was 84.3 nM. The same measure, in the same setting: in the case of `O=c1[nH]cnc2cc(N3CCS(=O)(=O)CC3)nc(Nc3ccc(N4CCOCC4)nc3)c12` [Example 305] it was 823 nM; in that of `CN1CCC(c2ccc(Nc3nc(N4CCC(N5CCCCC5)CC4)cc4nc[nH]c(=O)c34)cc2)CC1` [Example 313], 42.7 nM. Still for that read-out and setting: in the case of `CC(C)Nc1nc(-c2cnn(C)c2)cc2ncn(C)c(=O)c12` [Example 317] it was 126 nM; in that of `CC(C)Nc1nc(-c2cnc3[nH]ccc3c2)cc2ncn(C)c(=O)c12` [Example 324], 340 nM; in that of `Cn1cnc2cc(-c3cccc(S(C)(=O)=O)c3)nc(NC3CC3)c2c1=O` [Example 349], 375 nM. Same read-out and setting: as for `CNc1nc(-c2ccc(C(C)(C)O)nc2)cc2ncn(C)c(=O)c12` [Example 352], the figure is 376 nM; as for `COc1cc(-c2cc3ncn(C)c(=O)c3c(NCC(F)F)n2)ccc1OCCCN1CCOCC1` [Example 366], 113 nM; as for `COc1cc(-c2cc3ncn(C)c(=O)c3c(NC[C@H](C)O)n2)ccc1OCCCN1CCOCC1` [Example 372], 114 nM. `CNS(=O)(=O)c1cc(-c2cc3ncn(C)c(=O)c3c(NC3CCC3)n2)ccc1OC` [Example 415]: at hSyk (full length) (setting [1]), the IC50 is 131 nM. Same read-out and setting: in the case of `COc1ccc(-c2cc3ncn(C)c(=O)c3c(Nc3ccc4cn[nH]c4c3)n2)cc1OC` [Example 418] it was 531 nM.
